{"source": "ChEMBL document CHEMBL3425413", "about": "“Structure-based design and synthesis of covalent-reversible inhibitors to overcome drug resistance in EGFR” (Bioorg Med Chem, 2015)", "key": {"[1]": {"molecular_target": "Epidermal growth factor receptor (Homo sapiens, UniProt P00533)", "sequence (P00533 whole entry, the tested form may be a part)": "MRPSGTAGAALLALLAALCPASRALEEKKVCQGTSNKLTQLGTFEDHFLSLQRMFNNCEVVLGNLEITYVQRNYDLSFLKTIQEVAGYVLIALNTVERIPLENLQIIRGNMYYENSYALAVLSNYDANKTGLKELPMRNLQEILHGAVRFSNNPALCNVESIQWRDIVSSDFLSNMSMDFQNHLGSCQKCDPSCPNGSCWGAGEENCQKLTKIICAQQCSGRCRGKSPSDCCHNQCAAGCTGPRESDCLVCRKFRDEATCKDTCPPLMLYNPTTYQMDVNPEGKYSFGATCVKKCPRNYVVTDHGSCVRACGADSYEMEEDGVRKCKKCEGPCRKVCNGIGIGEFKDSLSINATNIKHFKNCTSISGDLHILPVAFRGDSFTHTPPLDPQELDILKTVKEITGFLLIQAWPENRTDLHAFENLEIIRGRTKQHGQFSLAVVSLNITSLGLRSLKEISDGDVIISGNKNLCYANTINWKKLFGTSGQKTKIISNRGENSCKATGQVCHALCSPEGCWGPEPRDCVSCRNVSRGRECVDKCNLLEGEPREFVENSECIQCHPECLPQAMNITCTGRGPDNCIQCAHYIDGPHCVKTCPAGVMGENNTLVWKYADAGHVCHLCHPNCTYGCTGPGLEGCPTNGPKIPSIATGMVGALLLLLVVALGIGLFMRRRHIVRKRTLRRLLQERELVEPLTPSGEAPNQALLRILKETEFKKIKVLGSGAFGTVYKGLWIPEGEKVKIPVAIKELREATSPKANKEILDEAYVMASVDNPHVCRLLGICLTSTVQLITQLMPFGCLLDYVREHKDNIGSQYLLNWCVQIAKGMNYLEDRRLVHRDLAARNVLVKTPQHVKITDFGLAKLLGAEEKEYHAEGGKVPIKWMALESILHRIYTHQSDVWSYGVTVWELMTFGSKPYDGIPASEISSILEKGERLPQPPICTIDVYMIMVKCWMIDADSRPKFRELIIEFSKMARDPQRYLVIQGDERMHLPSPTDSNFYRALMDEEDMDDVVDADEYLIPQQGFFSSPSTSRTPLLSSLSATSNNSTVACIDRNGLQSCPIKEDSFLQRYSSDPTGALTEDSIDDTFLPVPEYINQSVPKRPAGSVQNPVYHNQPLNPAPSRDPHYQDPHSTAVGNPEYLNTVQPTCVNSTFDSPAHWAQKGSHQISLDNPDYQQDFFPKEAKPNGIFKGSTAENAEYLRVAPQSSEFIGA", "assay": "Inhibition of wild type N-terminal His6-tagged human EGFR kinase domain (702 to 1016 residues) expressed in Sf9 cells pre-incubated for 30 mins before ATP and substrate addition by homogeneous time-resolved FRET assay"}, "[2]": {"molecular_target": "Epidermal growth factor receptor (Homo sapiens, UniProt P00533, L858R)", "sequence (P00533 25-1210 L858R limits assumed)": "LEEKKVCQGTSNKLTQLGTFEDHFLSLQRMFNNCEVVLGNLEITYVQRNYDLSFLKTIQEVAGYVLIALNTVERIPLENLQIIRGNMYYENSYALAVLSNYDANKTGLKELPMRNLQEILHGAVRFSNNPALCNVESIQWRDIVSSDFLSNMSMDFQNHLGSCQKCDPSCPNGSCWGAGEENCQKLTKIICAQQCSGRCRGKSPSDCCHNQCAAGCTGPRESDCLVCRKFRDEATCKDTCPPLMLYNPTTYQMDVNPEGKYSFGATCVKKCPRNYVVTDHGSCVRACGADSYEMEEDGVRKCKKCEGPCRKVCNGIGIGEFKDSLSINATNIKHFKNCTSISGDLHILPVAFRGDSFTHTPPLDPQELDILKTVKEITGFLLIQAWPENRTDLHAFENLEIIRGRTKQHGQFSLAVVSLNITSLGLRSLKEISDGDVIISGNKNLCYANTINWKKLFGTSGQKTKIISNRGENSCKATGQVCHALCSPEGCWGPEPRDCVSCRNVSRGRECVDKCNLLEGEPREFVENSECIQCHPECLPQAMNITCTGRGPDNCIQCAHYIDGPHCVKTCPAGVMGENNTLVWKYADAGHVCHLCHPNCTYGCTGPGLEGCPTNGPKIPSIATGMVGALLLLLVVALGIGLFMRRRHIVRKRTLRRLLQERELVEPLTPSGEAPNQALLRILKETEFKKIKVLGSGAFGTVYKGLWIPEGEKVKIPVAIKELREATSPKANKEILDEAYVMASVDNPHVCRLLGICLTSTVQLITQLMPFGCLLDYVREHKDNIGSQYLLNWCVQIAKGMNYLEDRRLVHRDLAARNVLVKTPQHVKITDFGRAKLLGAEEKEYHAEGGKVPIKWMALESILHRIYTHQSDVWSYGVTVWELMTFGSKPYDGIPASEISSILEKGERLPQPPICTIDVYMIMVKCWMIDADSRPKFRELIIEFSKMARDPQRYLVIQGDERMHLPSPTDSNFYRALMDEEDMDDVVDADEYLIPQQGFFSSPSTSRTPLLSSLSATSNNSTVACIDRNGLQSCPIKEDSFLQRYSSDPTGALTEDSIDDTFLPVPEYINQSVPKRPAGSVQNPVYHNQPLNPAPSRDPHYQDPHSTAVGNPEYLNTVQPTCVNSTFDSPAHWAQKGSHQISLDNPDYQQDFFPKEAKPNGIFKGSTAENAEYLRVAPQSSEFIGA", "assay": "Inhibition of GST-tagged human recombinant EGFR catalytic domain (668 to 1210 amino acids) L858R mutant expressed in Sf9 cells pre-incubated for 30 mins before ATP and substrate addition by homogeneous time-resolved FRET assay"}, "[3]": {"molecular_target": "Epidermal growth factor receptor (Homo sapiens, UniProt P00533, L858R/T790M)", "sequence (P00533 25-1210 T790M/L858R limits assumed)": "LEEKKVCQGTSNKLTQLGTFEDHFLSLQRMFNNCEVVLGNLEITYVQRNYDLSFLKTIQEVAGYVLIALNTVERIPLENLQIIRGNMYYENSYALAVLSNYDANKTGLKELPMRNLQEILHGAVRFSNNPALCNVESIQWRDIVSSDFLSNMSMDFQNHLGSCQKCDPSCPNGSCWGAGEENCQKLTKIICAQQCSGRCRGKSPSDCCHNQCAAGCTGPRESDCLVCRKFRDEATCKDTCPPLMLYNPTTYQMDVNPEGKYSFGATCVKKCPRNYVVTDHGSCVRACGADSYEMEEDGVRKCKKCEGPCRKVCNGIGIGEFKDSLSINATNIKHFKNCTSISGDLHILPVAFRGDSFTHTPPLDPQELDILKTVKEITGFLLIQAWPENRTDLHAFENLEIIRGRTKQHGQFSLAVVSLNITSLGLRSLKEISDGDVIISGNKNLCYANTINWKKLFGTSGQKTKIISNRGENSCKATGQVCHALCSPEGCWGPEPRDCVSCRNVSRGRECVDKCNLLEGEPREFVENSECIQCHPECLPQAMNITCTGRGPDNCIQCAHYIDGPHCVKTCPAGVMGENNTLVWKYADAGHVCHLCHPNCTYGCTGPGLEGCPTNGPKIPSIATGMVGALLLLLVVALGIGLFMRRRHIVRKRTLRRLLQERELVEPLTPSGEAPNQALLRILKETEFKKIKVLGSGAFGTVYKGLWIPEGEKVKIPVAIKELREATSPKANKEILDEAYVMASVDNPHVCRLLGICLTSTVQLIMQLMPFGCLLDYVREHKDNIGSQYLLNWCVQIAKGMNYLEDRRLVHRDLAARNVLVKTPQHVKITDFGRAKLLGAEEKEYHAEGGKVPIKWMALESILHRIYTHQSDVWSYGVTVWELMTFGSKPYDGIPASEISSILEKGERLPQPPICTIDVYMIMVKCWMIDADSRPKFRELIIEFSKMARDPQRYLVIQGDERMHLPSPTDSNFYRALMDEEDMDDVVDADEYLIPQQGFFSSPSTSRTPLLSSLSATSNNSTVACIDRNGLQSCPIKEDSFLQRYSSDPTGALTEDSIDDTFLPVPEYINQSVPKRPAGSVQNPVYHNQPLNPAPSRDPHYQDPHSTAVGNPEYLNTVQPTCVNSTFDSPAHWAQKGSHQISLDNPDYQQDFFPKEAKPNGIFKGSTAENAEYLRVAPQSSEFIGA", "assay": "Inhibition of GST-tagged human recombinant EGFR catalytic domain (668 to 1210 amino acids) T790M/L858R mutant expressed in Sf9 cells pre-incubated for 30 mins before ATP and substrate addition by homogeneous time-resolved FRET assay"}, "[4]": {"system": "Proto-oncogene tyrosine-protein kinase Src (Homo sapiens), P12931 [T341M,S348C]", "assay": "Induction of covalent modification of c-Src kinase domain (251 to 533 residues) T338M/S345C mutant (unknown origin) at 100 uM incubated for 1 hr by mass spectrometry method"}, "[5]": {"molecular_target": "Proto-oncogene tyrosine-protein kinase Src (Homo sapiens) (UniProt P12931)", "assay": "Induction of covalent modification of wild type c-Src kinase domain (251 to 533 residues) (unknown origin) at 100 uM incubated for 1 hr by mass spectrometry method"}, "[6]": {"system": "Proto-oncogene tyrosine-protein kinase Src (Homo sapiens), P12931 [T341M,S348C]", "assay": "Induction of covalent modification of c-Src kinase domain (251 to 533 residues) T338M/S345C mutant (unknown origin) assessed as protein mass increase at 100 uM incubated for 1 hr by mass spectrometry method"}}, "note": "Calls of active or inactive are those of the source. No cut-off for these calls is given here.", "data": [{"smiles": "COc1cc(N2CCN(C)CC2)ccc1Nc1ncc(Cl)c(Oc2cccc(NC(=O)/C(C#N)=C/c3ccco3)c2)n1", "values": [{"measurement": "IC50", "setting": "[1]", "value": "> 10", "unit": "µM"}, {"measurement": "IC50", "setting": "[2]", "value": 1300, "unit": "nM"}, {"measurement": "IC50", "setting": "[3]", "value": 330, "unit": "nM"}]}, {"smiles": "COc1cc(N2CCN(C)CC2)ccc1Nc1ncc(Cl)c(Oc2cccc(NC(=O)CCC3CC3)c2)n1", "values": [{"measurement": "IC50", "setting": "[1]", "value": "> 10", "unit": "µM"}, {"measurement": "IC50", "setting": "[2]", "value": 2000, "unit": "nM"}, {"measurement": "IC50", "setting": "[3]", "value": 770, "unit": "nM"}, {"measurement": "Activity", "setting": "[4]", "value": "inactive"}, {"measurement": "Activity", "setting": "[5]", "value": "inactive"}]}, {"smiles": "COc1cc(N2CCN(C)CC2)ccc1Nc1ncc(Cl)c(Oc2cccc(NC(=O)/C(C#N)=C/c3ccncc3)c2)n1", "values": [{"measurement": "IC50", "setting": "[1]", "value": 8.7, "unit": "µM"}, {"measurement": "IC50", "setting": "[2]", "value": 150, "unit": "nM"}, {"measurement": "IC50", "setting": "[3]", "value": 37, "unit": "nM"}]}, {"smiles": "COc1cc(N2CCN(C)CC2)ccc1Nc1ncc(Cl)c(Oc2cccc(NC(=O)/C(C#N)=C/C(C)C)c2)n1", "values": [{"measurement": "IC50", "setting": "[1]", "value": "> 10", "unit": "µM"}, {"measurement": "IC50", "setting": "[2]", "value": 1200, "unit": "nM"}, {"measurement": "IC50", "setting": "[3]", "value": 800, "unit": "nM"}]}, {"smiles": "COc1cc(N2CCN(C)CC2)ccc1Nc1ncc(Cl)c(Oc2cccc(NC(=O)/C(C#N)=C/C(C)(C)C)c2)n1", "values": [{"measurement": "IC50", "setting": "[1]", "value": "> 10", "unit": "µM"}, {"measurement": "IC50", "setting": "[2]", "value": 1300, "unit": "nM"}, {"measurement": "IC50", "setting": "[3]", "value": 400, "unit": "nM"}]}, {"smiles": "COc1cc(N2CCN(C)CC2)ccc1Nc1ncc(Cl)c(Oc2cccc(NC(=O)/C(C#N)=C/c3ccc(F)cc3)c2)n1", "values": [{"measurement": "IC50", "setting": "[1]", "value": 7, "unit": "µM"}, {"measurement": "IC50", "setting": "[2]", "value": 540, "unit": "nM"}, {"measurement": "IC50", "setting": "[3]", "value": 120, "unit": "nM"}]}, {"smiles": "COc1cc(N2CCN(C)CC2)ccc1Nc1ncc(Cl)c(Oc2cccc(NC(=O)/C(=C/c3ccc(F)cc3)C(F)(F)F)c2)n1", "values": [{"measurement": "IC50", "setting": "[1]", "value": "> 10", "unit": "µM"}, {"measurement": "IC50", "setting": "[2]", "value": "> 10000", "unit": "nM"}, {"measurement": "IC50", "setting": "[3]", "value": 6300, "unit": "nM"}]}, {"smiles": "COc1cc(N2CCN(C)CC2)ccc1Nc1ncc(Cl)c(Oc2cccc(NC(=O)/C(C#N)=C/c3ccc(SC)cc3)c2)n1", "values": [{"measurement": "IC50", "setting": "[1]", "value": 4.8, "unit": "µM"}, {"measurement": "IC50", "setting": "[2]", "value": 830, "unit": "nM"}, {"measurement": "IC50", "setting": "[3]", "value": 510, "unit": "nM"}]}, {"smiles": "COc1cc(N2CCN(C)CC2)ccc1Nc1ncc(Cl)c(Oc2cccc(NC(C)=O)c2)n1", "values": [{"measurement": "IC50", "setting": "[1]", "value": "> 10", "unit": "µM"}, {"measurement": "IC50", "setting": "[2]", "value": 490, "unit": "nM"}, {"measurement": "IC50", "setting": "[3]", "value": 180, "unit": "nM"}]}, {"smiles": "COc1cc(N2CCN(C)CC2)ccc1Nc1ncc(Cl)c(Oc2cccc(NC(=O)/C=C/C3CC3)c2)n1", "values": [{"measurement": "IC50", "setting": "[1]", "value": 5.6, "unit": "µM"}, {"measurement": "IC50", "setting": "[2]", "value": 2800, "unit": "nM"}, {"measurement": "IC50", "setting": "[3]", "value": 830, "unit": "nM"}, {"measurement": "Activity", "setting": "[6]", "value": 537, "unit": "Da"}]}, {"smiles": "COc1cc(N2CCN(C)CC2)ccc1Nc1ncc(Cl)c(Oc2cccc(NC(=O)/C(C#N)=C/C3CC3)c2)n1", "values": [{"measurement": "Activity", "setting": "[5]", "value": "Active"}, {"measurement": "Activity", "setting": "[6]", "value": 560, "unit": "Da"}]}, {"smiles": "COc1cc(N2CCN(C)CC2)ccc1Nc1ncc(Cl)c(Oc2cccc(NC(=O)/C(C#N)=C/c3ccc(C#N)cc3)c2)n1", "values": [{"measurement": "IC50", "setting": "[1]", "value": "> 10", "unit": "µM"}, {"measurement": "IC50", "setting": "[2]", "value": 1800, "unit": "nM"}, {"measurement": "IC50", "setting": "[3]", "value": 940, "unit": "nM"}]}, {"smiles": "COc1cc(N2CCN(C)CC2)ccc1Nc1ncc(Cl)c(Oc2cccc(NC(=O)/C(C#N)=C/C3CCCC3)c2)n1", "values": [{"measurement": "IC50", "setting": "[1]", "value": "> 10", "unit": "µM"}, {"measurement": "IC50", "setting": "[2]", "value": 2200, "unit": "nM"}, {"measurement": "IC50", "setting": "[3]", "value": 1200, "unit": "nM"}]}, {"smiles": "COc1cc(N2CCN(C)CC2)ccc1Nc1ncc(Cl)c(Oc2cccc(NC(=O)/C(=C/c3ccc(N(C)C)cc3)C(F)(F)F)c2)n1", "values": [{"measurement": "IC50", "setting": "[1]", "value": "> 10", "unit": "µM"}, {"measurement": "IC50", "setting": "[2]", "value": 6300, "unit": "nM"}, {"measurement": "IC50", "setting": "[3]", "value": 2200, "unit": "nM"}]}, {"smiles": "COc1cc(N2CCN(C)CC2)ccc1Nc1ncc(Cl)c(Oc2cccc(NC(=O)/C(C#N)=C/c3cccc([N+](=O)[O-])c3)c2)n1", "values": [{"measurement": "IC50", "setting": "[1]", "value": "> 10", "unit": "µM"}, {"measurement": "IC50", "setting": "[2]", "value": 1800, "unit": "nM"}, {"measurement": "IC50", "setting": "[3]", "value": 720, "unit": "nM"}]}, {"smiles": "COc1cc(N2CCN(C)CC2)ccc1Nc1ncc(Cl)c(Oc2cccc(NC(=O)/C(C#N)=C/c3ccc([N+](=O)[O-])cc3)c2)n1", "values": [{"measurement": "IC50", "setting": "[1]", "value": "> 10", "unit": "µM"}, {"measurement": "IC50", "setting": "[2]", "value": 2300, "unit": "nM"}, {"measurement": "IC50", "setting": "[3]", "value": 1200, "unit": "nM"}]}, {"smiles": "COc1cc(N2CCN(C)CC2)ccc1Nc1ncc(Cl)c(Oc2cccc(NC(=O)/C(C#N)=C/c3ccc(N(C)C)cc3)c2)n1", "values": [{"measurement": "IC50", "setting": "[1]", "value": "> 10", "unit": "µM"}, {"measurement": "IC50", "setting": "[2]", "value": "> 10000", "unit": "nM"}, {"measurement": "IC50", "setting": "[3]", "value": "> 10000", "unit": "nM"}]}]}
